Results taken from ChEMBL document CHEMBL1134076, “5,5-Diaryl-2-amino-4-pentenoates as novel, potent, and selective glycine transporter type-2 reuptake inhibitors” (Bioorg Med Chem Lett, 2001).

How the values were obtained:
[1] = biological target: T1, Sodium- and chloride-dependent glycine transporter 2 (Rattus norvegicus, UniProt P58295); test: In vitro glycine reuptake inhibitory activity against glycine transporter type-2 (GlyT-2) transporter cells after incubation at 37 degrees for 30 min in presence of 50 nM [3H]glycine.
T1 sequence (P58295 whole entry): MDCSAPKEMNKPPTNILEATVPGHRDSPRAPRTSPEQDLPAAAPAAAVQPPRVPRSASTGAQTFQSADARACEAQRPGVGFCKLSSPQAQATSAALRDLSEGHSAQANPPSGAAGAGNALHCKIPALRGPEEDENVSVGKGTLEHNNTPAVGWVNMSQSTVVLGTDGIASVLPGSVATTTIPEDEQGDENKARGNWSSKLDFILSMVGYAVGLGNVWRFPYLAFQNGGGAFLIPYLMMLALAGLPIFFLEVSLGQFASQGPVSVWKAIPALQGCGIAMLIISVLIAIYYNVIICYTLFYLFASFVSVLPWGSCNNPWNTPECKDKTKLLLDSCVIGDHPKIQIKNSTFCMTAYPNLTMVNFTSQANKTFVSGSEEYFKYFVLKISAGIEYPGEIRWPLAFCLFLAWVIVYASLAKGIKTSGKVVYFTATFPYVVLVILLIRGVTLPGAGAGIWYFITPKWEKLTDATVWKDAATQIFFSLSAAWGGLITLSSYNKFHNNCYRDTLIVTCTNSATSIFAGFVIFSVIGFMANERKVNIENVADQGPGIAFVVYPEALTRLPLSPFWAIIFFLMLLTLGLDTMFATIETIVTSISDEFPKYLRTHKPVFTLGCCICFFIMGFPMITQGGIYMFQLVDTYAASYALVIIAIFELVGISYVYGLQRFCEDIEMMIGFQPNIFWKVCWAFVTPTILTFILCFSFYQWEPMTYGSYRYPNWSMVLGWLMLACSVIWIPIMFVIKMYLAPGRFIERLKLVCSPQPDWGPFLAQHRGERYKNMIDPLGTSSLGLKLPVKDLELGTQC

[2] = biological target: T2, Sodium- and chloride-dependent glycine transporter 1 (Rattus norvegicus, UniProt P28572); test: In vitro glycine reuptake inhibitory activity against glycine transporter type-1 isoform C (GlyT-1c) transporter cells after incubation at 37 degrees for 30 min in presence of 50 nM [3H]glycine.
T2 sequence (P28572 whole entry): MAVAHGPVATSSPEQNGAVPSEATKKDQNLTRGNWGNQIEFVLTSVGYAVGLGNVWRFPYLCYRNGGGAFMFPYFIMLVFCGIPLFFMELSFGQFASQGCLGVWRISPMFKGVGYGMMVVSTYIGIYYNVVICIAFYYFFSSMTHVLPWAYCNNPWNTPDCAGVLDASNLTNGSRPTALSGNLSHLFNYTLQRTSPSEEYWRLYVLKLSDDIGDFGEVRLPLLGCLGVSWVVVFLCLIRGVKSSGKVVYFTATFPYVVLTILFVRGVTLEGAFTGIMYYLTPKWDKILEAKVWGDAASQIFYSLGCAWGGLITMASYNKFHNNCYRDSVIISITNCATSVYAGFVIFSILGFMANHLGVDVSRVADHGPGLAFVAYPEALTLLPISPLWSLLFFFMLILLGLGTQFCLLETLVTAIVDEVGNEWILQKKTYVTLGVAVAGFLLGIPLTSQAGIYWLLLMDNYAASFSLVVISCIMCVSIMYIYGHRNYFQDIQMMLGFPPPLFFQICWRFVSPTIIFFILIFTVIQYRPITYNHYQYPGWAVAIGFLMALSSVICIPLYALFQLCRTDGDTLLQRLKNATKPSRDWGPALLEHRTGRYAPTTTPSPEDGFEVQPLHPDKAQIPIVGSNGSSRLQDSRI

SMILES | IC50 [1] [µM] | IC50 [2] [µM]
COc1ccc(/C(=C/CC(N)C(=O)O)c2ccc(C(C)C)cc2)cc1 (stereo not given) | 1.16 | > 10
CC(C)c1ccc(/C(=C\CC(N)C(=O)O)c2ccc(C(C)(C)C)cc2)cc1 (stereo not given) | 5.47 | > 10
NC(C/C=C(\c1cccc(-c2ccccc2)c1)c1ccc(F)cc1F)C(=O)O (stereo not given) | 1.34 | > 10
NC(C/C=C(\c1ccc(-c2ccccc2)cc1)c1ccc(F)cc1F)C(=O)O (stereo not given) | 3.66 | > 10
NC(C/C=C(/c1ccc(F)cc1F)c1ccccc1-c1ccccc1)C(=O)O (stereo not given) | 2.75 | 8.92
CCc1ccc(/C(=C\CC(N)C(=O)O)c2ccc(F)cc2F)cc1CC (stereo not given) | 0.66 | > 10
CCc1ccc(/C(=C\C[C@H](N)C(=O)O)c2ccc(F)cc2F)cc1CC | 0.283 | –
CC(C)c1ccc(/C(=C\CC(N)C(=O)O)c2ccc(-c3ccccc3)cc2)cc1 (stereo not given) | 2.06 | > 10
CC(C)c1ccc(/C(=C\CC(N)C(=O)O)c2ccc(C#N)cc2)cc1 (stereo not given) | 2.64 | > 10
N[C@@H](C/C=C(\c1ccc2ccccc2c1)c1ccc(F)cc1F)C(=O)O | 0.365 | –
NC(C/C=C(\c1ccsc1)c1ccc(F)cc1F)C(=O)O (stereo not given) | 5.88 | > 10
CC(C)c1ccc(/C(=C\CC(N)C(=O)O)c2ccccc2)cc1 (stereo not given) | 0.4 | 8.34
CC(C)c1ccc(/C(=C\CC(N)C(=O)O)c2ccsc2)cc1 (stereo not given) | 1.03 | 5.77
NC(C/C=C(\c1ccccc1)c1ccc(F)cc1F)C(=O)O (stereo not given) | 6.44 | 9.5
CC(C)c1ccc(/C(=C\CC(N)C(=O)O)c2cccnc2)cc1 (stereo not given) | 5.93 | 6.48
NC(C/C=C(/c1ccc(-c2ccccc2)cc1)c1ccc(F)cc1F)C(=O)O (stereo not given) | 2.4 | 3.4
CC(C)c1ccc(C(=CCC(N)C(=O)O)c2ccc(C(C)C)cc2)cc1 (stereo not given) | 2.03 | > 10
NC(C/C=C(\c1cccnc1)c1ccc(F)cc1F)C(=O)O (stereo not given) | > 10 | > 10
NC(C/C=C(\c1ccc2ccccc2c1)c1ccc(F)cc1F)C(=O)O (stereo not given) | 0.77 | > 10

Other lines, results leading:

IC50 [1] [µM] | IC50 [2] [µM] | SMILES
> 10 | > 10 | N#Cc1ccc(/C(=C\CC(N)C(=O)O)c2ccc(F)cc2F)cc1 (stereo not given)
> 10 | > 10 | CC(C)c1ccc(/C(=C/CC(N)C(=O)O)c2ccc(F)cc2F)cc1 (stereo not given)
1.74 | > 10 | CC(C)(C)c1ccc(/C(=C\CC(N)C(=O)O)c2ccc(F)cc2F)cc1 (stereo not given)
0.15 | – | CC(C)c1ccc(/C(=C\C[C@H](N)C(=O)O)c2ccc(F)cc2F)cc1
1.59 | > 10 | CC(C)c1cccc(/C(=C\CC(N)C(=O)O)c2ccc(F)cc2F)c1 (stereo not given)
1.17 | 9.56 | Cc1ccc(/C(=C\CC(N)C(=O)O)c2ccc(F)cc2F)cc1 (stereo not given)
0.29 | 8.02 | CC(C)c1ccc(/C(=C\CC(N)C(=O)O)c2ccccc2F)cc1 (stereo not given)
0.33 | > 10 | CC(C)c1ccc(/C(=C\CC(N)C(=O)O)c2ccc(F)cc2F)cc1 (stereo not given)
2.03 | > 10 | COc1ccc(/C(=C\CC(N)C(=O)O)c2ccc(F)cc2F)cc1 (stereo not given)
0.46 | > 10 | CCc1ccc(/C(=C\CC(N)C(=O)O)c2ccc(F)cc2F)cc1 (stereo not given)
